Data taken from patent US10328075B2, “Method of treatment and compounds for use therein” (Baker Heart and Diabetes Institute, priority 2015, dated 2019).

Tests used:
hFPR1 [1] = target: T1, hFPR1 (Homo sapiens, UniProt P21462); experiment: [Ca2+]i mobilization in FlpIn-CHO cells stably expressing hFPR1; format: cell-based; design: Calcium Rmax: unit not given here
T1 construct: expressed in transfected cells
T1 sequence (P21462 1-350): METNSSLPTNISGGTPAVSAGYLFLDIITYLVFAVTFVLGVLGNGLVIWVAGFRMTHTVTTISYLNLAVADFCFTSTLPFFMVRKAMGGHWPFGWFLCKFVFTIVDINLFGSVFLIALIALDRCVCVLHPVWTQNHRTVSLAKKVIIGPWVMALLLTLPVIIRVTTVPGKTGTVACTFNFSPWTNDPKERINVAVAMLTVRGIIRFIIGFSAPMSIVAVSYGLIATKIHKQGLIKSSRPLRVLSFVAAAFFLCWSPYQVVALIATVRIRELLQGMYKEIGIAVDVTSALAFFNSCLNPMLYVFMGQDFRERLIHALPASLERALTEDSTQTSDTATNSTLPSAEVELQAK
Description: (§1) cDNDA construct and generation of stable cell lines: cDNA in pcDNA3.1^+ encoding the human formyl peptide receptors (FPR) subtypes, hFPR1, hFPR2 and hFPR3 was obtained from Invitrogen. The sequences for 3 hFPR receptors were amplified by PCR and cloned into the Gateway entry vector, pDONR202™, using the BP clonase enzyme mix, according to the manufactures' instructions (Invitrogen Inc, Carlsbad, Calif., USA). All hFPR receptors constructs in pDONR201™ were subsequently transfected into the pEF5/FRT/V5/dest vector using the LR clonase enzyme mix (Invitrogen). Receptor constructs (pEF5/FRT/V5/dest) were used to transfect FIp-In CHO cells as described previously (Valant C et al., PNAS, 2014). Cells were selected using 500 μg/mL hydromycin to generate cell lines stably expressing each receptor construct. Cells were maintained and cultured in high glucose DMEM supplemented with 10% FBS, 16 mM HEPES and 500 μg/mL hydromycin at 37° C. under a humidified atmosphere containing 5% CO2.
(§2) In the various assays described below, cells were plated into 96-well transparent cell culture plates at 4×10^4 cells per well, cultured overnight in serum-free media at 37° C. in 5% CO2.
Intracellular calcium mobilization: Intracellular calcium mobilization was assayed as described previously (Keov, P et al., 2014). Briefly, cells were washed once using HEPES buffered saline (HBS) solution [150 mM NaCl, 2.2 mM CaCl2, 2.6 mM KCl, 1.2 mM MgCl2, 10 mM HEPEs, 10 mM D-Glucose, 0.5% (w/v) bovine serum albumin (BSA) and 4 mM probenecid] at pH 7.4, then treated with Fluo-4-AM (1 μM, in HBS/BSA/probenecid) for 60 min at 37° C. in 5% CO2 in the dark. Cells were then further washed and placed in HBS/BSA/probenecid solution for ligation addition and assay using the FLEXstation 3 plate reader (Molecular Devices, Sunnyvale, Calif.). For all experiments, peak change in fluorescence signal was normalized to the cellular response to 100 μM ATP, which was used as an internal positive control.
(§3) Data analysis: All data were analysed using GraphPad Prism 6.0 (GraphPad Software, San Deigo, Calif., USA). Where appropriate, concentration-response curves were fitted to derive the maximal agonist effect (Emax), and the ligand potency estimate (pEC50), where Emax is the maximal possible response of the system (not the agonist), basal is the basal level of response in the absence of agonist, and pEC50 is the negative logarithm of the agonist concentration that gives a response halfway between Emax and basal.
In the present study, FIp-IN CHO cells and Gateway plasmid were obtained from Invitrogen Inc (Carlsbad, Calif., USA). The sequences for all 3 known human FPRs (hFPR1, hFPR2 and hFPR3) were amplified by PCR and cloned into the Gateway entry vector, pDONR202TM, using the BP clonase enzyme mix, according to the manufacturers' instructions. The hFPR pDONR201TM constructs were subsequently transfected into the pEF5/FRT/V5/dest vector using the LR clonase enzyme mix (Invitrogen). Receptor constructs (pEF5/FRT/V5/dest) were used to transfect FIp-IN CHO cells, as described previously (Valant et al. 2014). Cells were selected using 500 μg/mL hydromycin to generate cell lines stably expressing each human receptor construct. Cells were maintained and cultured in high glucose Dulbecco's modified eagle medium (DMEM) supplemented with 10% fetal bovine serum (FBS, from JRH Biosciences, Lenexa, Kans., USA) and 500 μg/mL hydromycin B (Invitrogen Inc) at 37° C. under a humidified atmosphere containing 5% CO2. Cell were plated into 96-well transparent cell culture plates at 4×10^4 cells per well, cultured overnight in serum-free media at 37° C. in 5% CO2.
(ii) Intracellular Ca2+ mobilization: Intracellular Ca2+ mobilization was determined in stably-transfected recombinant hFPR CHO cells, as described previously (Valant et al. 2014).

hFPR1 [2] = target: T1, hFPR1; experiment: ERK1/2 phosphorylation (AlphaScreen SureFire) in hFPR1-FlpIn-CHO cells; format: cell-based
Description: as §1, §2
Measurement of extracellular signal regulated kinase 1 and 2 phosphorylation (pERK1/2): Initial ERK1/2 phosphorylation at Thr202/Tyr204 time-course experiments were performed to determine the time at which ERK1/2 phosphorylation was maximal after stimulation by each agonist. Cells were seeded onto transparent 96-well cell culture plates at 4×10^4 cells per well. After 6 h, cells were washed once with PBS, and then incubated in serum-free DMEM overnight, to allow FBS-stimulated phosphorylated ERK1/2 levels to subside. […] 10% (v/v) FBS was used as a positive control, with vehicle controls also included. The reaction was terminated by removal of study drugs and lysis of cells with 100 μL of SureFire lysis buffer (TGR Biosciences). Cell were lysed in SureFire lysis buffer and transferred to 384-well opaque proxiplates. Under low-light conditions, a 1:120 (v:v) dilution of AlphaScreen beads (both acceptor and donor):Surefire reaction buffer was prepared, which was mixed with the activation buffer in a ratio of 6:1 (v:v), respectively. Plates were incubated in the dark at 37° C. for 1 h before the fluorescence signal was measured by a Fusion-α plate reader (PerkinElmer Life and Analytical Sciences, Foster city, CA, USA) with standard AlphaScreen settings. Data were normalized to the maximal response elicited by 10% (v/v) FBS at the same time point.
Receptor mediated pERK1/2 levels were determined using the AlphaScreen™ ERK1/2 SureFire™ kit, as described previously (Keov, P et al., 2014). For all experiments, 10% FBS was used as internal positive control to stimulate pERK1/2, and which the maximum responses were used for normalization of data, whilst vehicle was used as negative control.
as §3
In the present study, FIp-IN CHO cells and Gateway plasmid were obtained from Invitrogen Inc (Carlsbad, Calif., USA). The sequences for all 3 known human FPRs (hFPR1, hFPR2 and hFPR3) were amplified by PCR and cloned into the Gateway entry vector, pDONR202TM, using the BP clonase enzyme mix, according to the manufacturers' instructions. The hFPR pDONR201TM constructs were subsequently transfected into the pEF5/FRT/V5/dest vector using the LR clonase enzyme mix (Invitrogen).

[3] = Plasma levels and pharmacokinetics in mice; format: in vivo, mouse; conditions: mouse, in vivo; Table 9; mice
hFPR1 [4] = target: T1, hFPR1; experiment: Quantification of biased agonism (operational model) at hFPR1 in CHO cells; format: cell-based; conditions: Table 9
Description: To quantify biased agonism mediated by each agonist across the various pathways ([Ca^2+], mobilization, pERK1/2, Akt1/2/3 and inhibition of cAMP accumulation), agonist concentration-response curves were refitted using the operation model normalized to the transduction ratio of a reference agonist (in this case, BIDI-002) as described previously (Stewart G D et al., 2009). Under these conditions, if the test agonist and the reference agonist activate the two pathways through a common receptor conformation, the log [bias factor] should be 0.0 (or bias factor different from 1.0), irrespective of differences in response amplification between pathways. In contrast, significant deviation of log [bias factor] from 0.0 (or bias factor different from 1.0) indicates the involvement of distinct conformations for the different agonists. All affinities, potencies, efficacies, and cooperativity parameters were estimated as logarithms (Christopoulos, 1998). Results are expressed as means±S.E. unless otherwise stated. Statistical analyses were by Student's t test, or one-way ANOVA followed by Dunnett's Comparison or Tukey's post-hoc test, as appropriate. Values of p<0.05 were considered statistically significant.
A “transduction ratio” is firstly derived for each response (τ/KA, where τ represents efficacy, and KA affinity, of the agonist for each GPCR conformational state), extracted from each concentration-response curve. “Bias factors” (ΔΔ(τ/KA)) were then calculated by normalizing the transduction ratio to a reference ligand (in this case, Cmpd43) and reference pathway, which here was Akt1/2/3(Thr308) phosphorylation. Lastly, bias factors were plotted on a ‘web of bias’ to visualize the potential for biased agonism. […] Under these conditions, if the test agonist and the reference agonist activate the two pathways through a common receptor conformation, the log [bias factor] should be 0.0 (i.e. the bias factor 1.0), irrespective of differences in response amplification between pathways. In contrast, significant deviation of log [bias factor] away from 0.0 (i.e. where the bias factor is different to 1.0) indicates the involvement of distinct conformations for the different agonists. All affinities, potencies, efficacies, and cooperativity parameters were estimated as logarithms (Kenakin et al. 2012).
Five signaling pathways were examined, namely pERK1/2-phosphorylation, Akt1/2/3(Ser473)-phosphorylation, Akt1(Thr308)-phosphorylation, increases in Ca2+i and inhibition of forskolin-induced cAMP accumulation. An operational model of agonism was fitted to each concentration-response curve to estimate a transduction ratio (τ/KA) for each agonist, at each pathway assessed, as described (FIG. 21B) (Kenakin et al. 2012). Transduction ratios were normalized to a reference agonist (Cmpd43) and a reference pathway (Akt1/2/3(Thr308)-phosphorylation), generating bias factors and therefore allowing quantitative cross-pathway comparison for each agonist.

[5] = Table 10, receptor not given, ND = Not detectable
[6] = Table 10, receptor not given, values of 10394/10396 equal the hFPR1 values of Table 9
[7] = Table 10, receptor not given, ND = Not detectable, read-out: Calcium pEC50 (converted)
[8] = Table 10, receptor not given, values of 10394/10396 equal the hFPR1 values of Table 9, read-out: ERK pEC50 (converted)

SMILES	Calcium Rmax (hFPR1 [1]; [5])	ERK Rmax (hFPR1 [2]; Table 10, receptor not given)	ERK pEC50 (hFPR1 [2]; [6])	EC50 (hFPR1 [1]; [7])	EC50 (hFPR1 [2]; [8])	Tmax [3]	half-life [3]	EC50 (hFPR1 [1]; Table 9, read-out: potency (pEC50) Ca^2+i, hFPR1-FlpInCHO cells in vitro (converted))	Bias (away from Ca2+i), hFPR1-FlpInCHO cells in vitro (hFPR1 [4])	EC50 (hFPR1 [2]; Table 9, read-out: potency (pEC50) pERK1/2, hFPR1-FlpInCHO cells in vitro (converted))
Cc1cc(Cc2ccc(F)cc2)c(=O)n(C(C)C(=O)Nc2ccc(Br)cc2)n1 (stereo not drawn) [MIPS-0008857]	5 ± 1	89 ± 1	5.74 ± 0.13	–	–	–	–	–	–	–
COc1ccc(OC)c(Cc2cc(C)nn(CC(=O)Nc3ccc(Cl)cc3)c2=O)c1 [MIPS-0010384]	19 ± 2	77 ± 3	5.00 ± 0.37	6030 nM	–	–	–	–	–	–
Cc1cc(Cc2ccccn2)c(=O)n(CC(=O)Nc2ccc(Cl)cc2)n1 [MIPS-0010397]	18 ± 8	74 ± 3	–	–	1020 nM	–	–	–	–	–
CCc1ccc(NC(=O)Cn2nc(C)cc(Cc3ccccc3OC)c2=O)cc1 [MIPS-0014051]	–	79 ± 9	5.30 ± 0.12	–	–	–	–	–	–	–
COc1cccc(Cc2cc(C)nn(C(C)C(=O)Nc3cccc(F)c3)c2=O)c1 (stereo not drawn) [MIPS-0008745]	–	50 ± 4	5.12 ± 0.38	–	–	–	–	–	–	–
COc1cccc(Cc2cc(C)nn(Cc3ccc(Cl)cc3)c2=O)c1OC [MIPS-0010394]	38 ± 2	82 ± 5	–	407 nM	170 nM	0.3 h	9.5 h	407 nM	Slight	170 nM
COc1ccc(NC(=O)Cn2nc(C)cc(Cc3ccccc3OC)c2=O)cc1 [MIPS-0014052]	13 ± 3	64 ± 6	5.10 ± 0.23	–	–	–	–	–	–	–
COc1cccc(Cc2cc(C)nn(C(C)C(=O)Nc3ccc4c(c3)OCO4)c2=O)c1 (stereo not drawn) [MIPS-0008750]	26 ± 6	74 ± 7	–	–	5750 nM	–	–	–	–	–
COc1cccc(Cc2cc(C)nn(C(C)C(=O)Nc3ccc(Cl)cc3)c2=O)c1 (stereo not drawn) [MIPS008744]	20 ± 5	95 ± 5	5.47 ± 0.12	–	–	–	–	–	–	–
COc1ccccc1Cc1cc(C)nn(CC(=O)Nc2ccc(Cl)cc2)c1=O [MIPS-0010392]	17 ± 3	81 ± 2	5.91 ± 0.13	18200 nM	–	–	–	–	–	–
